Results on two compounds are retold here after patent publication US12097171B2, “Petrolatum-based PHMB compositions and methods of treatment for onychomycosis” (GLOBAL HEALTH SOLUTIONS LLC, priority 2015, dated 2024).

Series [1] deals with skin of female albino New Zealand White rabbits. In words: Rabbit skin irritation. The settings on record: per rabbit, 24, 48 and 72 hour observations, two test sites, sulfate. The protocol:
Within 24 hours to 4 hours before test application, the backs of female albino New Zealand White rabbits were clipped free of hair, exposing 2 test and 2 control areas on each side of the spine with a size of approximately 15 cm×15 cm. The two test sites are located on the left cranial section and the right caudal section of the dorsal region. The two control sites are located on the left caudal and right cranial section of the dorsal region. FIG. 4 depicts the arrangement of test and control sites. The exposed skin is wiped with alcohol and dried. Rabbits of acceptable skin quality were selected and used for testing.
A 25×25 mm gauze patch saturated with 0.5 mL of 0.9% NaCl is used for the control and applied to the clipped control sites. The patches are secured using hypoallergenic, waterproof, surgical tape over the test and control sites. The animal's trunk is securely wrapped so as to maintain the position of the patches. Patches are left applied for a minimum of four hours.
After patch removal, the test and control sites were then scored for erythema and edema at 1, 24, 48 and 72 hours after patch removal. Only the 24, 48, and 72 hour observations were scored and used for calculations. If no response was expected, testing was conducted using three animals per test article. If irritation was anticipated, one animal was tested initially. If the first animal received a score of 2 or less for either erythema or edema, 2 additional rabbits were used to conclude the test.
This total was divided by the total number of observations. The same was done for the control sites. […] These scores for each animal were added and divided by the total number of animals to give the Primary Irritation Index. […] For any response, the Maximum Irritation Response, the time of onset of the response and the time of maximum response was recorded.
To positively validate the test, 10% sodium dodecyl sulfate (SDS), which is a known dermal irritant, in petroleum jelly was applied to a 2.5 cm×2.5 cm gauze patch. As a negative control, 0.5 mL of 0.9% NaCl was applied to a 2.5 cm×2.5 cm gauze patch. […]

Series [2] relates to human subjects having onychomycosis. The following applies: comparison value for standard of care; cited from earlier work.

Several values for one entry are separate records, joined by “and”; a condition that tells them apart may be missing. Equal entries are not always repeated.

`CCCCCCCCCCCCOS(=O)(=O)[O-].[Na+]` [10% SDS, sodium dodecyl sulfate]: in series [1] (patch at least four hours), the “ED (edema) score total” value was 19 and 21 and 14; the “ER (erythema) score total” value was 21 and 23 and 18. For the same compound, in series [1], the “ER + ED = Total” value was 40 and 44 and 32.

In the case of `CN(C/C=C/C#CC(C)(C)C)Cc1cccc2ccccc12` [Lamisil], the “effectiveness of standard of care treatments” value in series [2] was 20%.
